Test results from patent US8445207B2, “Genes based on thalidomide, valproic acid and methotrexate treatment for screening of drug inducing teratogenicity and screening method using thereof” (priority 2009, dated 2013).

Experiments:
[1] = test system: JEG-3 (human placental choriocarcinoma cell line); assay: Oligo microarray gene expression in drug-treated JEG-3 (Cy5 treated / Cy3 control); type: cell-based
Experimental: Thalidomide, valproic acid, and methotrexate were treated to human placental choriocarcinoma cell line at the concentrations determined above (Inhibition concentration: the concentration that can kill approximately 30% of the total cells, that is the concentration of 70% viability, IC30). mRNA was extracted from the drug treated cell line, followed by synthesis of cDNA which was labeled with Cy5. The non-treated control was labeled with Cy3. The fluorescence labeled cDNA was hybridized with 41K (thalidomide), 44K (valproic acid, methotrexate) human whole genome oligomicroarray chips (Agilent, USA), followed by fluorescent image scanning to analyze gene expression patterns (see FIG. 4). Volcano Plot of each substance was also attached. Y axis indicates probability (generally converted by −log 10). X axis indicates differential expression, which is presented by log-ratio.
Total RNA was separated from the treated cell by using trizol reagent (Invitrogen Life Technologies, USA) according to the manufacture's instructions, followed by purification using RNeasy mini kit (Qiagen, USA). Genomic DNA was eliminated during RNA purification using RNase-free DNase set (Qiagen, USA).
30 μg of the total RNA obtained above and 2 μg (1 μg/μl) of oligo (dT) primer were mixed, followed by reaction at 65° C. for 10 minutes. Annealing was performed in ice right after the reaction. Reagents were prepared as shown in Table 1 for reverse transcription of the annealed RNA.
The total RNA separated from the control group JEG-3 cells was labeled with Cy3-dUTP (green) and the total RNA separated from the experiment group JEG-3 cells treated with thalidomide, valproic acid and methotrexate was labeled with Cy5-dUTP (red). At this time, the two samples were mixed and purified by Microcon YM-30 column (Millipore, USA).
Hybridization and washing were performed by the manufacturer's (GenoCheck, Korea) instructions. Particularly, hybridization was performed in a 62° C. oven for 12 hours. As a DNA microarray chip, 44 k whole human genome oligo microarray (Agilent, USA) was used. After washing (2 minutes with 2×SSC/0.1% SDS, three minutes with 1×SSC, 2 minutes with 0.2×SSC), the slide was dried by centrifugation at 800 rpm for 3 minutes.
Hybridization image on the slide was scanned with Genepix 4000B (Axon Instruments, USA). Fluorescence image of the chip on which non-hybridized genes had been washed out was obtained by using laser fluorescence scanner. Green fluorescence image indicates the activity of gene specifically expressed in the control group and red fluorescence image indicates the activity of gene specifically expressed in the experimental group. […] Scanned image was analyzed by using GenePix 4.1 software (Axon Instruments, USA) to calculate gene expression rate.

[2] = test system: JEG-3 (human placental choriocarcinoma cell line); assay: Real-time RT-PCR quantification of gene expression in drug-treated JEG-3; type: cell-based
Experimental: My IQ Real-Time PCR (Bio-Rad, USA) was performed to quantify the expressions of those genes.
Particularly, cDNA was synthesized using oligo dT primer and Superscript kit (Omniscipt™ kit, Qiagen, Co., USA) by reverse transcription. 0.2 μl of the cDNA, 3.8 μl of water, 0.5 μg of a sense primer, 0.5 μg of an antisense primer, and […] of SYBR Green I supermix (Bio-Rad, USA) were mixed, which was placed in a PCR tube, followed by real-time RT-PCR in My IQ real-time PCR machine as follows: Step 1: 95°, 3 minutes; Step 2 (45 cycles): Step 2-1: 95°, 10 seconds; Step 2-2: 55-65° 45 seconds; Step 3: 95°, 1 minute; Step 4: 55°, 1 minute; Step 5 (80 cycles): 55°, 10 seconds. SYBR green I (Bio-Rad, USA) staining was performed to quantify the PCR product. SYBR I staining is the staining method using double stranded DNA binding. So, the more double stranded DNA is generated during PCR, the stronger the fluorescence intensity becomes. First, target gene and endogenous control (GAPDH) primers were added to SYBR green master mix, followed by PCR. Then, primer optimization was performed to determine a proper concentration. Synthesized cDNA and each primer were mixed (Table 4), to which SYBR master mix was added, followed by PCR.

[3] = out of 21797 (thalidomide), 21921 (valproic acid), 24006 (methotrexate) genes
[4] = treated at IC30, up-regulated gene, (k) common gene which has no function

O=C1CCC(N2C(=O)c3ccccc3C2=O)C(=O)N1 (stereo not shown) [THA, thalidomide]
cDNA microarray (Cy3/Cy5 ratio), KIAA0310 ([1]; GenBank AB002308): 1.94
cDNA microarray (Cy3/Cy5 ratio), ATP10B ([1]; GenBank AB018258): 3.11
cDNA microarray (Cy3/Cy5 ratio), TTF2 ([1]; GenBank AB209845): 1.58
cDNA microarray (Cy3/Cy5 ratio), TncRNA ([1]; GenBank AF001893): 1.5
cDNA microarray (Cy3/Cy5 ratio), C4orf19 ([1]; GenBank AK001879): 1.51
cDNA microarray (Cy3/Cy5 ratio), CYP19A1 ([1]; GenBank AK023571): 2.03
cDNA microarray (Cy3/Cy5 ratio), SLC40A1 ([1]; GenBank AK023574): 1.5
cDNA microarray (Cy3/Cy5 ratio), ABTB2 ([1]; GenBank AK095632): 1.78
cDNA microarray (Cy3/Cy5 ratio), TUBB3 ([1]; GenBank AK122757): 2.03
cDNA microarray (Cy3/Cy5 ratio), MGC27016 ([1]; GenBank AK125877): 1.51
cDNA microarray (Cy3/Cy5 ratio), GLCCI1 ([1]; GenBank AK126731): 1.56
cDNA microarray (Cy3/Cy5 ratio), TFCP2L4 ([1]; GenBank BC036890): 1.61
cDNA microarray (Cy3/Cy5 ratio), RGS2 ([1]; GenBank BC042755): 1.78
cDNA microarray (Cy3/Cy5 ratio), SIAT7A ([1]; GenBank BC063830): 2.54
cDNA microarray (Cy3/Cy5 ratio), B7-H4 ([1]; GenBank BX648021): 0.52
cDNA microarray (Cy3/Cy5 ratio), COBLL1 ([1]; GenBank BX649112): 1.85
cDNA microarray (Cy3/Cy5 ratio), CGA ([1]; GenBank NM_000735): 3.04
cDNA microarray (Cy3/Cy5 ratio), PARP1 ([1]; GenBank NM_001618): 0.66
cDNA microarray (Cy3/Cy5 ratio), SERPINB9 ([1]; GenBank NM_004155): 1.73
cDNA microarray (Cy3/Cy5 ratio), ST8SIA4 ([1]; GenBank NM_005668): 1.69
cDNA microarray (Cy5 treated / Cy3 control ratio), ABL1 ([1]; GenBank NM_007313): 0.65
cDNA microarray (Cy3/Cy5 ratio), GRLF1 ([1]; GenBank NM_024342): 0.55
cDNA microarray (Cy3/Cy5 ratio), LGP1 ([1]; GenBank NM_032484): 0.58
cDNA microarray (Cy3/Cy5 ratio), NCOA3 ([1]; GenBank NM_181659): 1.64
cDNA microarray (Cy3/Cy5 ratio), SR140 ([1]; GenBank XM_031553): 0.5
cDNA microarray (Cy3/Cy5 ratio), SLC7A8 ([1]; GenBank Y18483): 1.71
Ratio of intermediate value, IGF2 ([1]; Genbank AK074614, drug at IC30): 0.64
Ratio of intermediate value, GRLF1 ([1]; Genbank BI494022, NM_024342, drug at IC30): 0.55
Ratio of intermediate value, B7-H4 ([1]; Genbank BX648021, drug at IC30): 0.52
Ratio of intermediate value, PARP1 ([1]; Genbank NM_001618, drug at IC30): 0.66
Ratio of intermediate value, NRP1 ([1]; Genbank NM_003873, drug at IC30): 0.62
Ratio of intermediate value, HAND1 ([1]; Genbank NM_004821, drug at IC30): 0.61
Ratio of intermediate value, ABL1 ([1]; Genbank NM_007313, drug at IC30): 0.65
Ratio of intermediate value, LGP1 ([1]; Genbank NM_032484, drug at IC30): 0.58
Ratio of intermediate value, SR140 ([1]; Genbank XM_031553, drug at IC30): 0.50
genes down-regulated (ratio of intermediate value less than 0.666) ([1]; JEG-3, drug at IC30, 48 hours): 0.34%
genes up-regulated (ratio of intermediate value more than 1.5) ([1]; JEG-3, drug at IC30, 48 hours): 0.95%
number of genes down-regulated [1, 3]: 74
number of genes up-regulated [1, 3]: 208
Ratio of intermediate value, gene ATP10B (AB018258, ATPase, Class V, type 10B) [1, 4]: 3.11
Ratio of intermediate value, gene BQ186674 (cDNA clone UI-E-EJ1-ajr-f-10-0-UI, Hypothetical gene supported by AF086204) [1, 4]: 1.60
Ratio of intermediate value, gene BX111592 (Transcribed locus, moderately similar to XP_066443.6 PREDICTED: similar to paraneoplastic antigen like 6A) [1, 4]: 2.17
Ratio of intermediate value, gene CGA (NM_000735, Glycoprotein hormones, alpha polypeptide) [1, 4]: 3.04
Ratio of intermediate value, gene COBLL1 (BX649112, COBL-like 1) [1, 4]: 1.85
Ratio of intermediate value, gene CYP19A1 (AK023571, Cytochrome P450, family 19, subfamily A, polypeptide 1) [1, 4]: 2.03
Ratio of intermediate value, gene FLJ11017 (AK001879, Hypothetical protein FLJ11017) [1, 4]: 1.51
Ratio of intermediate value, gene GLCCI1 (AK126731, Glucocorticoid induced transcript 1) [1, 4]: 1.56
Ratio of intermediate value, gene KIAA0310 (AB002308, KIAA0310) [1, 4]: 1.94
Ratio of intermediate value, gene MGC27016 (AK125877, Hypothetical protein MGC27016) [1, 4]: 1.51
Ratio of intermediate value, gene NCOA3 (NM_181659, Nuclear receptor coactivator 3) [1, 4]: 1.64
Ratio of intermediate value, gene RGS2 (BC042755, Regulator of G-protein signalling 2, 24 kDa) [1, 4]: 1.78
Ratio of intermediate value, gene SIAT7A (BC063830, ST6 (alpha-N-acetyl-neuraminyl-2,3-beta-galactosyl-1,3)-N-acetylgalactosaminide alpha-2,6-sialyltransferase 1) [1, 4]: 2.54
Ratio of intermediate value, gene SIAT8D (NM_005668, ST8 alpha-N-acetyl-neuraminide alpha-2,8-sialyltransferase 4) [1, 4]: 1.69
Ratio of intermediate value, gene SLC7A8 (Y18483, Solute carrier family 7 (cationic amino acid transporter, y+ system), member 8) [1, 4]: 1.71
Ratio of intermediate value, gene SLC40A1 (AK023574, Solute carrier family 40 (iron-regulated transporter), member 1) [1, 4]: 1.50
Ratio of intermediate value, gene TFCP2L4 (BC036890, Grainyhead-like 3 (Drosophila)) [1, 4]: 1.61
Ratio of intermediate value, gene TTF2 (AB209845, Transcription termination factor, RNA polymerase II) [1, 4]: 1.58
Ratio of intermediate value, gene TUBB3 (AK122757, Tubulin, beta 3) [1, 4]: 2.03
Ratio of intermediate value, gene TncRNA (AF001893, Trophoblast-derived noncoding RNA) [1, 4]: 1.50
Real time PCR (Relative ratio), KIAA0310 ([2]; GenBank AB002308): 4.78
Real time PCR (Relative ratio), ATP10B ([2]; GenBank AB018258): 4.7689
Real time PCR (Relative ratio), TTF2 ([2]; GenBank AB209845): 1.6625
Real time PCR (Relative ratio), TncRNA ([2]; GenBank AF001893): 5.9587
Real time PCR (Relative ratio), C4orf19 ([2]; GenBank AK001879): 1.6143
Real time PCR (Relative ratio), CYP19A1 ([2]; GenBank AK023571): 2.6408
Real time PCR (Relative ratio), SLC40A1 ([2]; GenBank AK023574): 2.1558
Real time PCR (Relative ratio), ABTB2 ([2]; GenBank AK095632): 1.4359
Real time PCR (Relative ratio), TUBB3 ([2]; GenBank AK122757): 2.8114
Real time PCR (Relative ratio), MGC27016 ([2]; GenBank AK125877): 2.3438
Real time PCR (Relative ratio), GLCCI1 ([2]; GenBank AK126731): 1.5509
Real time PCR (Relative ratio), TFCP2L4 ([2]; GenBank BC036890): 2.5111
Real time PCR (Relative ratio), RGS2 ([2]; GenBank BC042755): 3.4255
Real time PCR (Relative ratio), SIAT7A ([2]; GenBank BC063830): 2.5019
Real time PCR (Relative ratio), B7-H4 ([2]; GenBank BX648021): 0.5
Real time PCR (Relative ratio), COBLL1 ([2]; GenBank BX649112): 1.5201
Real time PCR (Relative ratio), CGA ([2]; GenBank NM_000735): 2.9963
Real time PCR (Relative ratio), PARP1 ([2]; GenBank NM_001618): 0.805
Real time PCR (Relative ratio), SERPINB9 ([2]; GenBank NM_004155): 2.2852
Real time PCR (Relative ratio), ST8SIA4 ([2]; GenBank NM_005668): 1.8635
Real time PCR (Relative ratio), ABL1 ([2]; GenBank NM_007313): 0.6781
Real time PCR (Relative ratio), GRLF1 ([2]; GenBank NM_024342): 0.689
Real time PCR (Relative ratio), LGP1 ([2]; GenBank NM_032484): 0.4867
Real time PCR (Relative ratio), NCOA3 ([2]; GenBank NM_181659): 2.9283
Real time PCR (Relative ratio), SR140 ([2]; GenBank XM_031553): 0.6423
Real time PCR (Relative ratio), SLC7A8 ([2]; GenBank Y18483): 1.6327
